Assay results: patent US9101136B2, “Synergistic herbicide/fungicide composition containing certain pyridine carboxylic acids and certain fungicides” (Dow AgroSciences LLC, priority 2010, dated 2015)
Read-outs that look alike come from different tables or passages of the source.

Experiments:
Format in all cases: in vivo
[1] = system: Russian thistle (Salsola iberica L; SASKR); assay: Postemergence herbicidal activity of mixtures on Russian thistle; conditions: for SASKR Ob (observed control): alone
Experimental: (§1) Seeds of the desired test plant species were planted in Sun Gro MetroMix 306 planting mixture, which typically has a pH of 6.0 to 6.8 and an organic matter content of about 30 percent, in plastic pots with a surface area of 103.2 square centimeters (cm^2). When required to ensure good germination and healthy plants, a fungicide treatment and/or other chemical or physical treatment was applied. The plants were grown for 7-36 days (d) in a greenhouse with an approximate 14-hour (h) photoperiod which was maintained at about 18° C. during the day and 17° C. during the night. Nutrients and water were added on a regular basis and supplemental lighting was provided with overhead metal halide 1000-Watt lamps as necessary. The plants were employed for testing when they reached the second or third true leaf stage.
(§2) Treatments consisted of a cereal fungicide compound (as listed in Tables 1 through 34) and the cereal herbicide, 4-amino-3-chloro-6-(4-chloro-2-fluoro-3-methoxyphenyl)pyridine-2-carboxylic acid, alone and in combination. Weighed amounts of acid, esters (methyl) or salts (triethylammonium, TEA) of 4-amino-3-chloro-6-(4-chloro-2-fluoro-3-methoxyphenyl)pyridine-2-carboxylic acid (Compound I) were placed in 25 milliliter (mL) glass vials and dissolved in a volume of 97:3 volume-to-volume (v/v) acetone/dimethyl sulfoxide (DMSO) to obtain 4.5 milligrams active ingredient per milliliter (mg ai/mL) concentrated solutions. […] The concentrated solutions of Compound I were diluted to 1.5 mg ai/mL with the addition of 2 volumes of an aqueous mixture containing acetone, water, isopropyl alcohol, DMSO, Agri-dex crop oil concentrate, and Triton® X-77 surfactant in a 64.7:26.0:6.7:2.0:0.7:0.01 v/v ratio. A dilution solution was prepared by mixing 1 volume of 97:3 v/v acetone/DMSO and 2 volumes of an aqueous mixture containing acetone, water, isopropyl alcohol, DMSO, Agri-dex crop oil concentrate, and Triton® X-77 surfactant in a 64.7:26.0:6.7:2.0:0.7:0.01 v/v ratio. Compound requirements are based upon a 12 mL application volume at a rate of 187 liters per hectare (L/ha). The concentrated solutions of the cereal fungicides were prepared following the same procedure. Weighed amounts of fungicide were placed in 25 mL glass vials and dissolved in a volume of 97:3 v/v acetone/DMSO to obtain concentrated fungicide solutions. The concentrated solutions of the safener were prepared following the same procedure. Weighed amounts of safener were placed in 25 mL glass vials and dissolved in a volume of 97:3 v/v acetone/DMSO to obtain concentrated safener solutions.
(§3) Spray solutions of the cereal herbicide and the fungicidal compound mixtures were prepared by adding the concentrated solutions to the appropriate amount of dilution solution to form 12 mL spray solution with active ingredients in combinations. Spray solutions of the cereal herbicide, herbicide safener and the fungicidal compound mixtures were prepared by adding the concentrated solutions to the appropriate amount of dilution solution to form 12 mL spray solution with active ingredients in combinations.
(§4) Formulated compounds were applied to the plant material with an overhead Mandel track sprayer equipped with 8002E nozzles calibrated to deliver 187 L/ha over an application area of 0.503 square meters (m^2) at a spray height of 18 inches […] above average plant canopy. Control plants were sprayed in the same manner with the solvent blank.
(§5) The treated plants and control plants were placed in a greenhouse as described above and watered by sub-irrigation to prevent wash-off of the test compounds. After 20-22 d, the condition of the test plants as compared with that of the control plants was determined visually and scored on a scale of 0 to 100 percent where 0 corresponds to no injury and 100 corresponds to complete kill. […]

[2] = system: kochia (Kochia scoparia L; KCHSC); assay: Postemergence herbicidal activity of mixtures on kochia; set-up: KCHSC Ob: unit: %; conditions: for KCHSC Ob (observed control): alone
Experimental: as §1, §2, §3, §4, §5

[3] = system: wild pansy (Viola tricolor L; VIOTR); assay: Postemergence herbicidal activity of mixtures on wild pansy
Experimental: as §1, §2, §3, §4, §5

[4] = system: bird's-eye speedwell (Veronica persica L; VERPE); assay: Postemergence herbicidal activity of mixtures on bird's-eye speedwell; conditions: for VERPE Ob (observed control): alone
Experimental: as §1, §2, §3, §4, §5

[5] = system: Wheat; assay: Safening activity of herbicidal compositions on wheat (crop injury); conditions: for TRZAS Ob (observed injury): alone
Experimental: as §1, §2, §3, §4, §5

[6] = system: scented mayweed (Matricaria chamomila L; MATCH); assay: Postemergence herbicidal activity of mixtures on scented mayweed; conditions: for MATCH Ob (observed control): alone
Experimental: as §1, §2, §3, §4, §5

[7] = system: Barley; assay: Safening activity of herbicidal compositions on barley (crop injury); conditions: for HORVS Ob (observed injury): alone
Experimental: as §1, §2, §3, §4, §5

[8] = system: Canada thistle (Cirsium arvense L; CIRAR); assay: Postemergence herbicidal activity of mixtures on Canada thistle
Experimental: as §1, §2
(§6) Spray solutions of the cereal herbicide and the fungicidal compound mixtures were prepared by adding the concentrated solutions to the appropriate amount of dilution solution to form 12 mL spray solution with active ingredients in combinations. Spray solutions of the cereal herbicide, herbicide safener and the fungicidal compound mixtures were prepared by adding the concentrated solutions to the appropriate amount of dilution solution to form 12 mL spray solution with active ingredients in combinations. […]
as §5

[9] = system: redroot pigweed (Amaranthus retroflexus L; AMARE); assay: Postemergence herbicidal activity of mixtures on redroot pigweed
Experimental: as §1, §2, §6, §5

[10] = system: lamb's-quarter (Chenopodium album L; CHEAL); assay: Postemergence herbicidal activity of mixtures on lamb's-quarter; conditions: fungicide 562.5 g/ha alone
Experimental: as §1
as §2, with “The concentrated solutions of the safener were prepared following the same procedure. Weighed amounts of safener were placed in 25 mL glass vials and dissolved in a volume of 97:3 v/v acetone/DMSO to obtain concentrated safener solutions.” left out
as §5

CC(C)(C)C(O)(CCc1ccc(Cl)cc1)Cn1cncn1 (stereo not drawn) [Tebuconazole, α-[2-(4-chlorophenyl)ethyl]-α-(1,1-dimethylethyl)-1H-1,2,4-triazole-1-ethanol]
0: SASKR Ob ([1]; fungicide 250 g/ha) | KCHSC Ob ([2]; fungicide 250 g/ha) | VIOTR Ob ([3]; fungicide 250 g/ha) | VERPE Ob ([4]; fungicide 250 g/ha) | TRZAS Ob ([5]; fungicide 250 g/ha) | MATCH Ob ([6]; fungicide 250 g/ha) | HORVS Ob ([7]; fungicide 250 g/ha)
0%: SASKR Ob (observed control) ([1]; 31.25 g/ha) | SASKR Ob (observed control) ([1]; 62.5 g/ha) | SASKR Ob (observed control) ([1]; 250 g/ha) | KCHSC Ob (observed control) ([2]; 31.25 g/ha) | KCHSC Ob (observed control) ([2]; 62.5 g/ha) | KCHSC Ob (observed control) ([2]; 250 g/ha) | pest or weed control at 31.25 g/ha ([3]; Viola tricolor, post-emergence, alone, 31.25 g/ha, read-out: VIOTR Ob (observed control)) | pest or weed control at 62.5 g/ha ([3]; Viola tricolor, post-emergence, alone, 62.5 g/ha, read-out: VIOTR Ob (observed control)) | pest or weed control at 250 g/ha ([3]; Viola tricolor, post-emergence, alone, 250 g/ha, read-out: VIOTR Ob (observed control)) | VERPE Ob (observed control) ([4]; 31.25 g/ha) | VERPE Ob (observed control) ([4]; 62.5 g/ha) | VERPE Ob (observed control) ([4]; 250 g/ha) | TRZAS Ob (observed injury) ([5]; 62.5 g/ha) | TRZAS Ob (observed injury) ([5]; 250 g/ha) | MATCH Ob (observed control) ([6]; 31.25 g/ha) | MATCH Ob (observed control) ([6]; 62.5 g/ha) | MATCH Ob (observed control) ([6]; 250 g/ha) | HORVS Ob (observed injury) ([7]; 62.5 g/ha) | HORVS Ob (observed injury) ([7]; 250 g/ha)

CC(C)NC(=O)N1CC(=O)N(c2cc(Cl)cc(Cl)c2)C1=O [Iprodione, 3-(3,5-dichlorophenyl)-N-(1-methylethyl)-2,4-dioxo-1-imidazolidine=carboxamide]
0%: pest or weed control at 750 g/ha ([3]; Viola tricolor, post-emergence, fungicide 750 g/ha alone, read-out: VIOTR Ob) | CIRAR Ob ([8]; fungicide 750 g/ha alone) | AMARE Ob ([9]; fungicide 750 g/ha alone)

CC(Cc1ccc(C(C)(C)C)cc1)CN1CCCCC1 (racemic) [Fenpropidin, (±)-1-[3-[4-(1,1-dimethylethyl)phenyl]-2-methylpropyl]piperidine]
0%: CHEAL Ob [10] | pest or weed control at 562.5 g/ha ([3]; Viola tricolor, post-emergence, fungicide 562.5 g/ha alone, read-out: VIOTR Ob) | CIRAR Ob ([8]; fungicide 562.5 g/ha alone) | AMARE Ob ([9]; fungicide 562.5 g/ha alone)

CO/C=C(/C(=O)OC)c1ccccc1Oc1cc(Oc2ccccc2C#N)ncn1 [Azoxystrobin, methyl (αE)-2-[[6-(2-cyanophenoxy)-4-pyrimidinyl]oxy]-α-(methoxymethylene)benzeneacetate]
0: SASKR Ob ([1]; fungicide 250 g/ha) | KCHSC Ob ([2]; fungicide 250 g/ha) | VERPE Ob ([4]; fungicide 250 g/ha) | TRZAS Ob ([5]; fungicide 250 g/ha) | MATCH Ob ([6]; fungicide 250 g/ha) | HORVS Ob ([7]; fungicide 250 g/ha)
0%: pest or weed control at 62.5 g/ha ([1]; Salsola tragus, post-emergence, fungicide 62.5 g/ha alone, read-out: SASKR Ob) | pest or weed control at 62.5 g/ha ([2]; Bassia scoparia, post-emergence, fungicide 62.5 g/ha alone, read-out: KCHSC Ob) | pest or weed control at 62.5 g/ha ([3]; Viola tricolor, post-emergence, fungicide 62.5 g/ha alone, read-out: VIOTR Ob) | pest or weed control at 62.5 g/ha ([6]; Matricaria, post-emergence, fungicide 62.5 g/ha alone, read-out: MATCH Ob)

O=C(O)COc1ccc(Cl)c2cccnc12 [Cloquintocet]
0: SASKR Ob ([1]; Cloquintocet 4.4 g/ha) | SASKR Ob ([1]; Cloquintocet 8.75 g/ha) | KCHSC Ob ([2]; Cloquintocet 4.4 g/ha) | KCHSC Ob ([2]; Cloquintocet 8.75 g/ha) | VIOTR Ob ([3]; Cloquintocet 4.4 g/ha) | VIOTR Ob ([3]; Cloquintocet 8.75 g/ha) | VERPE Ob ([4]; Cloquintocet 4.4 g/ha) | VERPE Ob ([4]; Cloquintocet 8.75 g/ha) | TRZAS Ob ([5]; Cloquintocet 4.4 g/ha) | TRZAS Ob ([5]; Cloquintocet 8.75 g/ha) | MATCH Ob ([6]; Cloquintocet 4.4 g/ha) | MATCH Ob ([6]; Cloquintocet 8.75 g/ha) | HORVS Ob ([7]; Cloquintocet 4.4 g/ha) | HORVS Ob ([7]; Cloquintocet 8.75 g/ha)
